Measurements: patent US20100172988A1, “SUSTAINED RELEASE PREPARATION AND METHOD FOR PRODUCTION THEREOF” (KISSEI PHARMACEUTICAL CO., LTD., priority 2006, published 2010)

Experiments:
[1] = Decomposition of compound (I) on adding a basic ingredient; format: physicochemical; settings: basic ingredient added to compound (I)
[2] = pH dependence of the dissolution rate of compound (I); format: physicochemical; settings: compared with approximately pH 1.2 (gastric juice) and approximately pH 6.8 (intestinal juice)

Compound: CCOC(=O)COc1cc(C)c(CCN[C@@H](C)[C@H](O)c2ccc(O)cc2)cc1C.Cl [compound (I), Ethyl (−)-2-[4-[2-[[(1S,2R)-2-hydroxy-2-(4-hydroxy-phenyl)-1-methylethyl]amino]ethyl]-2,5-dimethylphenoxy]-acetate hydrochloride]
- decomposition of compound (I) [1]: decomposition of compound (I) itself was accelerated
- pH of the highest dissolution rate of the active ingredient [2]: highest dissolution rate at approximately pH 4
